One may read the Km as the substrate concentration at which the rate is half of its maximum. Broadly, the Kd is the free concentration of one partner at which half of the binding sites on the other are occupied at equilibrium, for simple one-to-one binding.

For assay [1], the target named is T1, juvenile hormone esterase (Heliothis virescens, UniProt P12992).
T1 sequence (P12992 20-564): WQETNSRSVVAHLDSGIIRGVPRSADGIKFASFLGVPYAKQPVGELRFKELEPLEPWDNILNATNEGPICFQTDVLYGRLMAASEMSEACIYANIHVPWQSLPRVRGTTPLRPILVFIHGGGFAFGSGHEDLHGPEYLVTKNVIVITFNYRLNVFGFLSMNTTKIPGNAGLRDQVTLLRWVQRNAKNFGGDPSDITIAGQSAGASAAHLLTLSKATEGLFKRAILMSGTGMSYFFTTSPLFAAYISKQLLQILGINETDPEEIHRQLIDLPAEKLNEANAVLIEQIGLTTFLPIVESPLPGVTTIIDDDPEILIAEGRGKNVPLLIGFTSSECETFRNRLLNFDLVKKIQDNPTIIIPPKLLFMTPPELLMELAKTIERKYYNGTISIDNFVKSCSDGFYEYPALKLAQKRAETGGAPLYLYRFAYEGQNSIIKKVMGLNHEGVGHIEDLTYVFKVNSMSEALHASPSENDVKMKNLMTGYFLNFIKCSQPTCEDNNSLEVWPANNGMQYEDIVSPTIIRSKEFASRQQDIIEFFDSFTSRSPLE
Description: Juvenile hormone esterase kinetics for juvenile hormone. In kind it is biochemical. Conditions: substrate juvenile hormone. From the text: (§1) Juvenile hormone esterase is biochemically interesting in that it is an extraordinarily efficient enzyme. The very low Km ^31 6×10^-8 M of juvenile hormone esterase, its high kcat, and the low molarity of the enzyme even in the last larval stadium indicate that production of even small amounts of juvenile hormone esterase (<0.1% of total protein) should overpower the ability of the corpora allata to make juvenile hormone. This destruction of the juvenile hormone will be […] by the juvenile hormone hemolymph carrier protein.

Assay [2] has as its target T2, juvenile hormone hemolymph carrier protein (H. virescens) (Heliothis virescens, UniProt Q25175).
T2 construct: preparation not described in the excerpts
T2 sequence (Q25175 19-242): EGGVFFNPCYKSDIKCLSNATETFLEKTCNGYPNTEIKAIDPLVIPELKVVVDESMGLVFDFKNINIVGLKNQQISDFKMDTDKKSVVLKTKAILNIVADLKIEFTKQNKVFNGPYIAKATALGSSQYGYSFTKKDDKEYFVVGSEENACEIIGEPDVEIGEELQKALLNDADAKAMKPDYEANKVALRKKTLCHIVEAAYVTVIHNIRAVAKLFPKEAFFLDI
Description: Binding of juvenile hormone by the hemolymph carrier protein. Conditions: juvenile hormone bound by carrier protein.
Text: as §1

The test system of a further assay is tomato hornworm larvae. Description: Prevention of cuticular blackening in tomato hornworm larvae injected with juvenile hormone esterase. Conditions: third stadium larvae injected with 9 μg (148 pmoles) juvenile hormone esterase, then 0.17 nmoles epofenonane. The format is in vivo, Manduca sexta. As to the method: Tomato hornworm larvae, obtained from Zoecon Corp., were injected with the affinity purified juvenile hormone esterase obtained from Example I. Injections were performed at 10 hours after lights on the day before ecdysis to the third stadium. Larvae were reared on a 14L"10D photoperiod. Injections were made in 1.5 μl of buffer cocktail containing 3-10 μg (49-164 pmoles) of esterase. Total protein in each injection was kept constant at 10 μg with […] bovine serum albumen (BSA). Control injections in buffer contained 10 μg BSA or 12 μg larval blood protein from which the esterase was removed.
FIG. 2 illustrates third stadium tomato hornworm larvae after injection with 9 μg (148 pmoles) of juvenile hormone esterase as in FIG. 1, but then treated with 17 nmoles epofenonane (left), 0.17 nmoles epofenonane (middle) or no epofenonane (right). […] Epofenonane is a juvenile hormone chemical mimic, although it is not a substrate for juvenile hormone esterase. Thus, FIG. 2 illustrates that even a dose of juvenile hormone which is too low completely to prevent an anti-juvenile hormone effect can still effect a localized response.

For the compound juvenile hormone, in assay [1], the Michaelis constant (Km) was found to be 0.06 µM. The same compound registered a dissociation constant Kd in assay [2] of 610 nM. On to `CCc1ccc(OCCC(CC)CCC2OC2(C)CC)cc1` (stereo not drawn) [epofenonane], for which the “prevention of blackening of the cuticle” value in the assay on tomato hornworm larvae was “not sufficient to prevent completely the blackening of the cuticle”.

(Values after patent publication US5098706A, “Juvenile hormone esterase for insect control” (The Regents of the University of California, priority 1988, dated 1992).)
